Data reported in US5108916A, “Process for stereoselectively hydrolyzing, transesterifying or esterifying with immobilized isozyme of lipase from Candida rugosa” (priority 1989, dated 1992).
Where “and” joins values, the source holds several entries; their conditions need not be identical. Equal entries are not always repeated. Where two headings read alike, the source gives them in different places.

Legend:
[1] = Conversion of ketoprofen esters in organic solvent/oleic acid media; type: biochemical
Protocol: To optimize the organic solvent used in the presence of oleic acid a variety of organic solvents were used, along with a variety of ketoprofen esters. In this experiment, 50 mg of ketoprofen esters were weighed into flasks, along with 1 ml of oleic acid and 9 ml of an organic solvent. The flasks were capped and incubated at 35° C., 250 rpm, for 10-26 hours before stopping the reaction by first adding 4 ml CHCl3 to solubilize the substrates and products, then filtering through a 0.2 um Gelman Nylaflo filter. Samples were then diluted in methanol and analyzed by HPLC as in Example 18. The experiment was also performed using 200 ul of oleic acid and 10ml buffer, which was acidified, extracted with CHCl3 and analyzed by HPLC as above.
One ml of oleic acid was added, as was 9 ml of buffer (100 mM (NH4)H2 PO4, pH 5.5) or organic solvent. Flasks were placed into a 35° C. incubator and shaken at 250 rpm for 13 hours. Reaction was stopped by adding 5 ml CHCl3 to solubilize the organic material and filtering the solutions using 0.2 um Gelman Nylaflo membranes to remove the enzyme. Samples were analyzed on an ODS-3 RAC column using CH3 OH:10 mM (NH4)H2PO4 (60:40) as eluant, flow rate 4 ml/min, and detection at 254 nm. %ee was determined by the resolution of diastereomeric amides on the above HPLC system, as per Example 18.

[2] = test system: CSC-2; experiment: Effect of additives and solvents on hydrolysis of ketoprofen monoglyceride by CSC-2; type: biochemical, Candida rugosa; conditions: for % ee S-acid: 23 hr, 200 ul; for Isolated % ee (S-Acid): extraction procedure I for oleic acid and corn oil, II for the others; for % ee: as E102
Protocol: Hydrolysis of ketoprofen-monoglyceride (50mg) was carried out in various DMF-100mM (NH4)H2 PO4 buffer (pH 5.5) mixtures. In each flask a solution of ketoprofen monoglyceride (50mg) in DMF (200ul) was added. DMF was added followed by 100mM (NH4)H2 PO4 buffer. […] After 22 hours, 2%, 5%, and 10% DMF samples were acidified, extracted with CHCl3 (2×10ml) and analyzed. The other samples were analyzed directly as in Example 18. The acid produced decreases with increasing amount of DMF.
Small amounts of DMF were added to the reaction mixture to increase the solubility of KPG. In all cases 100mM ammonium phosphate buffer (pH 5.5) was used and 2% (v/v) detergents were added and the total volume was 10ml.
The buffer reaction (entry #2 in the table) contained enzyme in buffer (2 ml) and the buffer only (entry #1 in the table) reaction contained no enzyme.
The presence of a surfactant like Tween increases the solubility o lipophilic compounds in water. […] Tween 80 was added to make 1% and 2% solution (v/v). Bovine serum albumin (BSA) (10mg) was added to each of two flasks. A solution of 50mg of ketoprofen monoglyceride in 200ul DMF was added to each. After 20 hours at 250 rpm and 35° C. the reaction mixtures were acidified, extracted and analyzed by the usual HPLC procedure as in Example 18.
Various surfactants were used at 2% of the reaction volume to determine their effect on the enzymatic reaction involving the conversion of ketoprofen monoglyceride (KPG) to ketoprofen (KP). […] Flasks were covered with parafilm and incubated in a 35° C. water bath at 250 rpm, typically overnight. Reactions were stopped by acidification, extracted with CHCl3 (2×10 ml). The %acid and %ee were determined by the method of Example 18. It is to be noted that Hydrophile-Lipophile Balance (HLB) values have no apparent bearing on the ability of the surfactant to enhance the conversion of KPG to KP.
75 mg of KPG (in the absence of DMF) was individually weighed into 50 ml Erlenmeyer flasks. […] 9 ml of 100 mM (NH4)H2 PO4, pH 5.5 buffer was added, and the flasks were placed into a 35° C., 250 rpm water bath incubator for 20 hours. The reactions were acidified, extracted with CHCl3 and examined by HPLC as in Example 18. The %ee was determined as per Example 18.
Various amounts of oleic acid or its esters were added, and the reactions stopped at the times indicated, acidified, extracted with CHCl3 and analyzed as in Example 18.
An experiment was performed as in Example 41, but using 100, 200 and 500 ul of olive oil to determine if it would enhance the rate of conversion of KPG to KP. […] After 20 hours, all reactions were acidified, extracted with CHCl3 and analyzed by HPLC as in Example 18. The results are given below:
50 mg of KPG was weighed into Erlenmeyer flasks. […] Flasks were incubated at 35° C., 250 rpm for 23 hours. The reactions were stopped by acidification, extracted with CHCl3, and analyzed by HPLC as in Example 18. The additive is listed along with its percentage composition of glycerides of oleic acid.
To determine the problems associated with having oleic acid or oleate. esters in the reaction media, the following experiment was performed. […] Flasks were placed in a 35° C. incubator at 250 rpm, and the reactions were sampled by taking 200 ul aliquots at various time points. These aliquots were analyzed by HPLC (ODS-3 RAC column, CH3 OH: 10 mM (NH4)H2 PO4 (60:40) eluant, 4 ml/min, 254 nm detection) to determine the course of reaction. When approximately 40% acid was produced, the reactions were stopped by placing the flasks in the -70° C. freezer. Two extraction procedures were utilized to determine the best method of isolating S-Ketoprofen free of oleic acid. The first (listed as Extraction Procedure I in the following table) involved first making the solution basic (pH 10) with NaOH, then extracting with hexane, then CHCl3.

[3] = solvent/buffer 1:1 two phase, 16 hour reactions
[4] = solvent/buffer 1:1 two phase, 26 hours, buffer = 100
[5] = 200 ul DMF, b1067-b1069 18 hr, b1070-b1084 23 hr, amounts: 200 ul except tributyrin, dilinolein, trilinoein 100 ul, monostearin, distearin 25 ul, tristearin 28 ul, 0 = CSC-2 alone
[6] = 18 hr with 100 ul (b930-b936), 23 hr with 200 ul (b937-b944), None = CSC-2 alone
[7] = 5 g KPG, 50 mg CSC-2, 5 grams additive
[8] = surfactant 2% of reaction volume, 200 ul DMF, enzyme alone = 100
[9] = additive 100 ul, 75 mg KPG, no DMF, 20 hours
[10] = additive 200 ul, 75 mg KPG, 20 hours
[11] = additive 500 ul, 75 mg KPG, 20 hours

Molecule: CC(C(=O)OCCCl)c1cccc(C(=O)c2ccccc2)c1 (stereo not shown) [2-Chloroethyl Ester, 2-chloroethyl ester of ketoprofen]
- % ee ([1]; Buffer 10 ml, OA 200 ul): 96%
- % Acid ([1]; Buffer 10 ml, OA 200 ul, enzyme not named in Example 55): 18%
- % Acid ([1]; CHCl3 9 ml, OA 1 ml): 2%
- % ee ([1]; CHCl3 9 ml, OA 1 ml): 3%
- % Acid ([1]; Hexane 9 ml, OA 1 ml, 10-26 hours): 7%
- % ee ([1]; Hexane 9 ml, OA 1 ml, * stopped at 10 Hr): 92%
- % Acid ([1]; Isooctane 9 ml, OA 1 ml): 18%
- % ee ([1]; Isooctane 9 ml, OA 1 ml, * stopped at 10 Hr): 97%
- % Acid ([1]; Toluene 9 ml, OA 1 ml): 1%
- % ee ([1]; Toluene 9 ml, OA 1 ml): < 1%

Molecule: CCC(=O)CC [3-Pentanone]
- Relative Rate [2, 3]: 0

Molecule: OCc1ccccc1 [Benzyl alcohol]
- Relative Rate [2, 3]: 0

Molecule: ClC(Cl)Cl [Chloroform]
- Relative Rate ([2]; pH 5.5, 960 min): 0

Molecule: O=C1CCCCC1 [Cyclohexanone]
- Relative Rate [2, 3]: 0

Molecule: ClCCl [Dichloromethane]
- Relative Rate [2, 3]: 0

Molecule: CCOC(C)=O [Ethyl acetate]
- Relative Rate [2, 3]: 0

Molecule: CCOCC [Ethyl ether]
- Relative Rate ([2]; pH 5.5, 960 min): 0

Molecule: CCc1ccccc1 [Ethylbenzene]
- EE of S-acid [2]: 48%
- Relative Rate [2, 4]: 18

Molecule: ClCCCl [Ethylene dichloride]
- Relative Rate [2, 3]: 0

Molecule: CC(C)OC(C)C [Isopropyl ether]
- EE of S-acid ([2]; solvent/buffer 1:1 two phase, 26 hours): 69%
- Relative Rate [2, 4]: 53

Molecule: CCCCC/C=C\C/C=C\CCCCCCCC(=O)OCC [Linoleic acid ethyl ester]
- % Acid [2, 5]: 26%

Molecule: CCCCCCCC/C=C\CCCCCCCC(=O)OCC(O)CO (stereo not shown) [Monolein]
- % Acid [2, 6]: 43%
- Rate ([2]; as E158): 4

Molecule: CC(=O)OCC(COC(C)=O)OC(C)=O [Triacetin]
- % Acid [2, 5]: 12%

Molecule: CCCCC/C=C\C/C=C\CCCCCCCC(=O)OCC(O)COC(=O)CCCCCCC/C=C\C/C=C\CCCCC [dilinolein]
- % Acid [2, 5]: 20%

Molecule: CCCCCCCCCCCCCCCCCC(=O)OCC(O)COC(=O)CCCCCCCCCCCCCCCCC [distearin]
- % Acid [2, 5]: 30%

Molecule: CCCCC/C=C\C/C=C\CCCCCCCC(=O)OC [linoleic acid methyl ester]
- % Acid [2, 5]: 34%

Molecule: CCCCC/C=C\C/C=C\CCCCCCCC(=O)O [linoleic acid]
- % Acid [2, 5]: 21%

Molecule: CC/C=C\C/C=C\C/C=C\CCCCCCCC(=O)O [linolenic acid]
- % Acid [2, 5]: 13%

Molecule: CCCCCCCCCCCCCCCCCC(=O)OCC(O)CO (stereo not shown) [monostearin]
- % Acid [2, 5]: 31%

Molecule: CCCCO [n-Butanol]
- Relative Rate [2, 3]: 0

Molecule: CCCCCCO [n-Hexanol]
- Relative Rate [2, 3]: 0

Molecule: CCCCCCCCO [n-Octanol]
- Relative Rate [2, 3]: 0

Molecule: CCCCCCCC/C=C\CCCCCCCC(=O)OCC [oleic acid ethyl ester]
- % Acid [2, 6]: 52%
- % ee S-acid ([2]; None = CSC-2 alone): 96%
- Rate ([2]; as E158): 4

Molecule: CCCCCCCC/C=C\CCCCCCCC(=O)OC [oleic acid methyl ester]
- % Acid [2, 6]: 51%
- % ee S-acid ([2]; None = CSC-2 alone): 97%
- Rate ([2]; as E158): 3

Molecule: CCCCCCCC/C=C\CCCCCCCC(=O)O [oleic acid]
- Final % Acid [2, 7]: 39%
- Rate [2, 7]: 1.2 µmol/h/mg
- % Acid [2, 6]: 47%
- % ee S-acid ([2]; None = CSC-2 alone): 96%
- Rate ([2]; as E158): 3
- Isolated % ee (S-Acid) [2]: 88%

Molecule: CCCC(=O)OCC(COC(=O)CCC)OC(=O)CCC [tributyrin]
- % Acid [2, 5]: 3%

Molecule: CCCCC/C=C\C/C=C\CCCCCCCC(=O)OCC(COC(=O)CCCCCCC/C=C\C/C=C\CCCCC)OC(=O)CCCCCCC/C=C\C/C=C\CCCCC [trilinoein]
- % Acid [2, 5]: 20%

Molecule: CCCCCCCC/C=C\CCCCCCCC(=O)OCC(COC(=O)CCCCCCC/C=C\CCCCCCCC)OC(=O)CCCCCCC/C=C\CCCCCCCC [triolein]
- % Acid [2, 6]: 38%
- Rate ([2]; as E158): 3

Molecule: CCCCCCCCCCCCCCCCCC(=O)OCC(COC(=O)CCCCCCCCCCCCCCCCC)OC(=O)CCCCCCCCCCCCCCCCC [tristearin]
- % Acid [2, 5]: 25%

Molecule: Diolein
- % Acid [2, 6]: 42%
- Rate ([2]; as E158): 4

Molecule: POE-2 oleyl ether [Brij 92]
- Relative Rate [2, 8]: 27

Molecule: POE-2 stearyl ether [Brij 72]
- Relative Rate [2, 8]: 106

Molecule: POE-10 oleyl ether [Brij 96]
- Relative Rate [2, 8]: 27

Molecule: POE-10 stearyl ether [Brij 76]
- Relative Rate [2, 8]: 18

Molecule: POE-20 oleyl ether [Brij 99]
- Relative Rate [2, 8]: 15

Molecule: POE-20 stearyl ether [Brij 78]
- Relative Rate [2, 8]: 14

Molecule: POE-23 lauryl ether [Brij 35]
- Relative Rate [2, 8]: 26

Molecule: Span 20
- Relative Rate [2, 8]: 75

Molecule: Span 40
- Relative Rate [2, 8]: 99

Molecule: Span 60
- Relative Rate [2, 8]: 108

Molecule: Span 80
- % Acid [2, 9]: 27%
- S-acid (% ee) ([2]; additive 200 ul): 97
- % Acid [2, 10]: 28%
- % Acid [2, 11]: 27%
- Relative Rate [2, 8]: 160

Molecule: Span 85
- Final % Acid [2, 7]: 28.9%
- Rate [2, 7]: 0.87 µmol/h/mg
- % Acid [2, 9]: 28%
- S-acid (% ee) ([2]; additive 200 ul): 96
- % Acid [2, 10]: 33%
- % Acid [2, 11]: 34%
- % ee [2]: 93% and 96% and 95% and 97%
- Isolated % ee (S-Acid) [2]: 95.1%
- Relative Rate [2, 8]: 181

Molecule: Tween 20
- Relative Rate [2, 8]: 39

Molecule: Tween 40
- Relative Rate [2, 8]: 29

Molecule: Tween 60
- Relative Rate [2, 8]: 23

Molecule: Tween 61
- Relative Rate [2, 8]: 92

Molecule: Tween 65
- Relative Rate [2, 8]: 39

Molecule: Tween 80
- Final % Acid [2, 7]: 34.9%
- Rate [2, 7]: 0.46 µmol/h/mg
- Relative Rate ([2]; 20 hours, b844=no Tween no BSA, b846=1% Tween and BSA, b848=2% Tween and BSA, b850=2% Tween no BSA, 1200 min): 114 and 142 and 118
- % Acid [2, 9]: 12%
- S-acid (% ee) ([2]; additive 200 ul): 96
- % Acid [2, 10]: 22%
- % Acid [2, 11]: 18%
- % ee [2]: 96% and 92% and 86% and 97% and 93%
- ee of S-acid ([2]; as E149): 95% and 96%
- Isolated % ee (S-Acid) [2]: 94.3%
- Relative Rate [2, 8]: 136

Molecule: Tween 85
- Relative Rate [2, 8]: 27

Molecule: sorbitan sesquioleate [Arlacel 83]
- % Acid [2, 9]: 30%
- S-acid (% ee) ([2]; additive 200 ul): 99
- % Acid [2, 10]: 30%
- % Acid [2, 11]: 29%
- Relative Rate [2, 8]: 172
